Laboratory results as given in patent publication US12571764B2, “Receptor-based biosensors” (STATE OF ISRAEL, MINISTRY OF AGRICULTURE & RURAL …, priority 2020, dated 2026).
Blank lines part the entries; values can stand above or below the compound they belong to.

Experiments:
Aedes aegypti Orco = target: T1, Aedes aegypti Orco (Aedes aegypti, UniProt Q178U6); assay: two-electrode voltage clamp of Xenopus oocytes expressing Orco; assay type: cell-based; conditions: for effect on VUAA1-activated Orco: oocytes expressing Aedes aegypti Orco, 2.10-4 M VUAA1 with equimolar concentration of antagonist
T1 construct: expressed in transfected cells; host or cells: Xenopus oocytes injected with capped Orco RNA from linearized pSP64DV
T1 sequence (Q178U6 1-478): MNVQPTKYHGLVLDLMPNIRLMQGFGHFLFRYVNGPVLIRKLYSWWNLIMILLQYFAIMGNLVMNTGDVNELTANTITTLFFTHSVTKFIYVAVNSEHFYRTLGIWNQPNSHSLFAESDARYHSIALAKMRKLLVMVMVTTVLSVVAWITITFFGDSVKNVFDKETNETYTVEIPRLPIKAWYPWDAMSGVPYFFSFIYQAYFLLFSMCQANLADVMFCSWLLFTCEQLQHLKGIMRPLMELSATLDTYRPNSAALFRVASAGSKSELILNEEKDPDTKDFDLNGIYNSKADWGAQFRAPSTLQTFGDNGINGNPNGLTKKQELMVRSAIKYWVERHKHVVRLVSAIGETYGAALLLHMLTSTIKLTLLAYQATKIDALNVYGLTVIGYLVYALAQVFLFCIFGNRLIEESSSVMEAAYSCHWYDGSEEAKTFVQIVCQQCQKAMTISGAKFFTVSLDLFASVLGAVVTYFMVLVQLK
Excerpt: FIG. 4A-Chemical structures of tested compounds. FIG. 4B-Representative current traces of oocytes expressing Aedes aegypti Orco following exposure to 2.10-4 M VUAA1 alone or in combination with equimolar concentrations of the antagonists octadienal and carvacrol. FIG. 4C-Normalized responses of AaegOrco to VUAA1 alone or in combination with octadienal or carvacrol. Odorants effects were statistically significant (one-way ANOVA followed by Tukey's post-test; P<0.0001; mean responses+s.e.m.; VUAA1 alone, n=7; octadienal & carvacrol n=6).
(§1) Orco expression, electrophysiology and purification. Supply of Orco-rich membranes will be predicated on the functional validation carried out using the two-electrode voltage clamp of Xenopus oocytes expressing this receptor. Expression and recordation of the pharmacological activity of mosquito odorant receptor complexes (ORx-Orco) in Xenopus oocytes has been studies extensively. This technique to study the agonist activity of Orco agonists (e.g., VUAA1) and antagonists (e.g., octadienal and carvacrol) (as shown in FIG. 4A) or associated with ORx has been achieved. In some cases Orco rather than ORx was used in order to reduce potential pitfalls associated with OR complexes. In some cases, ORx alone is not functional without its co-receptor chaperone. Two types of expression vectors adapted to Xenopus oocyte expression are used. pSP64DV was used to record currents reaching over 1 μA from Orco exposed to VUAA1, indicating high protein levels (FIG. 4B). Considering the objective to extract Orco-rich membrane fragments less than <50 nm in length, receptor density should be sufficient to ensure that these short fragments contain Orco. To evaluate Orco density, this gene was expressed using the pCMV6-AC-mKate expression vectors (Origene), or other tagged version. This plasmid functions well in Xenopus oocytes and adds a constitutively fluorescent mKate2 tag on the C-terminus of the protein of interest (here Orco) that can be directly or indirectly (fluorescence immunohistochemistry) detected by confocal scanning laser microscopy. […]

OR9/OR10 = conditions: background, based on cell-based assays; cited from earlier work
[1] = cited from earlier work
OR2 = OR2 (Anopheles gambiae, UniProt Q8WTE6); conditions: background, based on cell-based assays; cited from earlier work
Chain of OR2 (Q8WTE6 whole entry, species assumed): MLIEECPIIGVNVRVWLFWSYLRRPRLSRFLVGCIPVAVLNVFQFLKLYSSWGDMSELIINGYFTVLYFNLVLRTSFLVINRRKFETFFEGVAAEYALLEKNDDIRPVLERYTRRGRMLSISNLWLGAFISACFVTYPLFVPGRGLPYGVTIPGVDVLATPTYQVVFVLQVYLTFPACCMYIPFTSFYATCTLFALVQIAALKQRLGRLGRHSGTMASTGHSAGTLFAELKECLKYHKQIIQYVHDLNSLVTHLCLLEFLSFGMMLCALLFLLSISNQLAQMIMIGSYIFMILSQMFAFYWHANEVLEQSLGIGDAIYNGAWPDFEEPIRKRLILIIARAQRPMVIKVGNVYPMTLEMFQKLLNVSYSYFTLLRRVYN
Chain of OR2 (Q7QCC7 whole entry partner, species assumed): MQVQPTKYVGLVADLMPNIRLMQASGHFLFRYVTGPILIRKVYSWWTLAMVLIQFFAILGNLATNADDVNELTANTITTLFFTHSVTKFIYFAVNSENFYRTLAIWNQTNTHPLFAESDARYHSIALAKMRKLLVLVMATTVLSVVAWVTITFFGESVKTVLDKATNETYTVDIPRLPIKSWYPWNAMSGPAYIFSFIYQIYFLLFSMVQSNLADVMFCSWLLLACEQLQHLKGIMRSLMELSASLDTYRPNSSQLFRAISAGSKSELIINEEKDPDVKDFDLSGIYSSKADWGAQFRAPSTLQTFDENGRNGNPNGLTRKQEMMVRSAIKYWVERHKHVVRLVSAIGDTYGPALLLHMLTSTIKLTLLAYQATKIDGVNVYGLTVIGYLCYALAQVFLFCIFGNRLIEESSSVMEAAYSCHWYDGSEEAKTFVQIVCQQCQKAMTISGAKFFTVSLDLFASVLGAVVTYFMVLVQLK

[2] = system: OR8 from Toxorhynchites amboinensis (TaOR8); assay: mosquito odorant receptor 8 activation by odorants (TaOR8); assay type: cell-based; conditions: FIG. 17A
Excerpt: (§2) FIG. 17B-OR8 is an enantioselective octenol receptor, distinguishing between the (R)-enantiomer, which is the most abundant form in nature, and the(S)-enantiomer.
(§3) Indeed, any modifications of the double bond saturation, side chain length, chiral center position, or functional substitution of the (R)-1-octen-3-ol chemical structure is sufficient to prevent OR8 from being activated (FIG. 17B).

[3] = system: mosquito odorant receptors known as OR8; assay: mosquito odorant receptor OR8 activation and odorant tuning; assay type: cell-based; conditions: FIG. 17A
Excerpt: as §3
These studies established OR8 as a sensitive enantioselective odorant receptor, whose narrow odorant tuning is optimal in the nanomolar range, which is excellent in the field of receptor pharmacology. […] OR8 is the epitome of receptor selectivity, being able to reject any slight modification on the (R)-1-octen-3-ol backbone manifesting in complete activation shutdown (FIG. 17B). At a low concentration the receptor is specific to (R)-1-octen-3-ol (FIG. 17C), which is a desirable property for the purpose of using this receptor to detect early signs of microbial contamination or presence.

[4] = system: OR8 from Aedes aegypti (AaOR8); assay: mosquito odorant receptor 8 activation by odorants (AaOR8); assay type: cell-based; conditions: FIG. 17A
Excerpt: as §2, §3

[5] = target: T2, Aedes aegypti OR8 (AaOR8) (Aedes aegypti, UniProt Q16MN0); assay: Activation of mosquito odorant receptor OR8 from Aedes aegypti (AaOR8), FIG. 17A; assay type: cell-based; conditions: molar concentration, read-out: A. agypti OR8 EC50
T2 sequence (Q16MN0 1-422): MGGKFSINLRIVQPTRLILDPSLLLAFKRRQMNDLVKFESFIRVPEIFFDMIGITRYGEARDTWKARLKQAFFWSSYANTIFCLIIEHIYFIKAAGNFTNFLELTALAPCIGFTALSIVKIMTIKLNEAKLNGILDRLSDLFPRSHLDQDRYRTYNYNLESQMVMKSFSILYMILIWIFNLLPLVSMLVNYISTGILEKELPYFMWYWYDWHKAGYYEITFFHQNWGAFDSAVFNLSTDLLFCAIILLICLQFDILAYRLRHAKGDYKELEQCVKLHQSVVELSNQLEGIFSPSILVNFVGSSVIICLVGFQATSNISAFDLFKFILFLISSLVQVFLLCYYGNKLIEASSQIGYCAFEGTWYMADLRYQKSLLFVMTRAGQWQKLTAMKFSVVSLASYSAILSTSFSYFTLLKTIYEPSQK
T2 sequence (Q178U6 1-478 partner): T1 sequence (Q178U6 1-478)
Excerpt: as §2
as §1, with “Considering the objective to extract Orco-rich membrane fragments less than <50 nm in length, receptor density should be sufficient to ensure that these short fragments contain Orco. To evaluate Orco density, this gene was expressed using the pCMV6-AC-mKate expression vectors (Origene), or other tagged version.” left out

[6] = system: Toxorhynchites amboinensis OR8 (TaOR8); assay: Activation of mosquito odorant receptor OR8 from Toxorhynchites amboinensis (TaOR8), FIG. 17A; assay type: cell-based; conditions: molar concentration, read-out: T. amboinensis OR8 (TaOR8) EC50
Excerpt: as §2
as §1, with “Considering the objective to extract Orco-rich membrane fragments less than <50 nm in length, receptor density should be sufficient to ensure that these short fragments contain Orco. To evaluate Orco density, this gene was expressed using the pCMV6-AC-mKate expression vectors (Origene), or other tagged version.” left out

Compound: octadienal
effect on VUAA1-activated Orco (Aedes aegypti Orco): inhibit VUAA1-activated Orco

Compound: Cc1c[nH]c2ccccc12 [skatole]
concentration range of selective response of OR9/OR10 (OR9/OR10): upper picomolar range
solubility in water [1]: sparingly soluble

Compound: c1ccc2[nH]ccc2c1 [indole]
solubility in water [1]: sparingly soluble
concentration range of selective response of OR2 (OR2): upper picomolar range

concentration range at which OR8 is activated [3]: parts per billion range
sensitivity of AaOR8 (activating concentration range) [4]: parts per billion range
Compound: C=C[C@H](O)CCCCC [(R)-1-octen-3-ol]
sensitivity of TaOR8 (activating concentration range) [2]: parts per billion range

Compound: Cc1ccc(C(C)C)cc1O [carvacrol]
effect on VUAA1-activated Orco (Aedes aegypti Orco): inhibit VUAA1-activated Orco

Compound: CCc1ccc(NC(=O)CSc2nnc(-c3cccnc3)n2CC)cc1 [VUAA1]
currents recorded from Orco exposed to VUAA1 (Aedes aegypti Orco; Xenopus oocytes, pSP64DV expression vector): over 1 μA

EC50 [5]: 213 nM
Compound: C=C[C@H](O)CCCCC [(R)-1-Octen-3-ol, (R)-1-octen-3-ol]
EC50 [6]: 401 nM
